Measured values as given in US8729047B2, “Compositions for inhibiting redox-sensitive GTPases” (Board of Regents, The University of Texas System, priority 2010, dated 2014).
Where two headings read alike, the source gives them in different places. One block for each molecule: values may come before it.

Tests used:
RhoC [1] = biological target: T1, RhoC (Homo sapiens, UniProt P08134); assay: RhoC expression (Western) and RhoC activity assay in cells; format: cell-based; parameters: endogenous in cells; host or cells: SUM149, SUM102, SW480, HCCLM3 (endogenous); HME-RhoC (transfected with wild type RhoC)
T1 sequence (P08134 whole entry): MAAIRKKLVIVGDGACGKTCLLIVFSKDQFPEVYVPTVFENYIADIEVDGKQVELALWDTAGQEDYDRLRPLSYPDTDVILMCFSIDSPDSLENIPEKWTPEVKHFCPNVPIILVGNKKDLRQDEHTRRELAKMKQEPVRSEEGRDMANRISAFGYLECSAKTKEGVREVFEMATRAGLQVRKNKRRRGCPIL
Protocol: FIG. 14. Determination of cell invasiveness in the presence and absence of thiopurines and/or redox agents. […] Western blot analysis representing the total expression of RhoC in these cells also is shown. (B) Experimental procedures for the determination of the time-dependent motility of cells using the QCM Cell Invasion Assay kit in the presence and absence of 6-TG and DETA/NO are described elsewhere herein.
Cells were lysed in an extraction buffer containing 50 mM NaCl, 5 mM MgCl2, 1 mM ethylenediaminetetraacetic acid (EDTA), 0.1 mM diethylenetriaminepentaacetic acid (DTPA), and 0.1% NP40 in 150 mM TrisHCl (pH 8.0). The content of […] RhoC in cells then was determined by using Western analysis that relies on a monoclonal anti-RhoC antibody (Biocompare, South San Francisco, Calif.). To determine RhoC activity, the colorimetric RhoA activation assay Biochem Kit (Cytoskeleton, Denver, Colo.) was used essentially as described in the previous study (Hall et al. Neoplasia 10, 797-803 (2008)) except that the RhoC specific antibody (vide supra), instead of the RhoA antibody included in the assay kit, was used for this analysis.

RhoA [2] = biological target: T2, RhoA (Homo sapiens, UniProt P61586); assay: Competitive binding assay, [3H]GDP-loaded Rho protein titrated with 6-TGDP (FIG. 16A)
T2 construct: made in house; host or cells: E. coli
T2 sequence (P61586 whole entry, species assumed): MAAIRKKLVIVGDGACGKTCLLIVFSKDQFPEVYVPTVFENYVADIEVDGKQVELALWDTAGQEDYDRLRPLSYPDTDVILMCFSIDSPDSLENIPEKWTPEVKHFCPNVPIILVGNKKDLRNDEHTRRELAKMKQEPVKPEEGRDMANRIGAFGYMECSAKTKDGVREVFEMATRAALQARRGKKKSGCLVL
Protocol: FIG. 16. Kinetic properties of RhoC with 6-TGDP in the presence or absence of a redox agent. All kinetic analyses are described elsewhere herein. (A) ^appKD values of Rac1, RhoA, RhoC, and RhoC C20S for 6-TGDP were estimated to be 7.9, 11.6, 11.8, and 11.2 μM, respectively. ^trueKD values of Rac1, RhoA, and RhoC for 6-TGDP were then calculated to be 5.1, 10.8, 11.1, and 10.5 μM, respectively, by using a compensation equation, ^trueKD for 6-TGDP=^appKD for 6-TGDP/(1+[[^3H]GDP]/^trueKD for GDP) (Heo, J., and Hong, I. (2010) Biochemistry 49, 3965-3976), in conjunction with the values given. […] The GDP dissociation rates from RhoC C20S by NO, .NO2, and N2O3 were estimated to be 0.02×10^−3, 0.05×10^−3, and 0.04×10^−3 s^−1, respectively. […] (D) ^appKD values of RhoC for [^3H]GDP in the presence or absence of DTT were estimated to be 22.4 μM and […], respectively. ^appKD values of C20S RhoC for [^3H]GDP in the presence or absence of DTT were determined to be 24.8 μM and 25.2 μM, respectively. […]
(a) A competitive binding assay was performed to determine the binding affinity of Rho GTPase and 6-TGDP. […] Each membrane was washed three times with the assay buffer, and radioactivity was determined using a Beckman-Coulter scintillation counter. The radioactivity of the sample (Rho protein-bound [^3H]GDP) was converted into, and thus plotted, as the fraction of mol GDP per mol total Rho protein. […]

Rho proteins = assay: Binding affinity of 6-TGDP compared with GDP (Example 3); conditions: all examined Rho proteins; FIG. 16A
Protocol: (a) A competitive binding assay was performed to determine the binding affinity of Rho GTPase and 6-TGDP. The radiolabeled [^3H]GDP-loaded Rho protein (1 μM) was titrated with various concentrations of 6-TGDP. The titrated Rho protein sample then was spotted onto a nitrocellulose membrane. Each membrane was washed three times with the assay buffer, and radioactivity was determined using a Beckman-Coulter scintillation counter. The radioactivity of the sample (Rho protein-bound [^3H]GDP) was converted into, and thus plotted, as the fraction of mol GDP per mol total Rho protein. The apparent dissociation constant (^appKD) of the Rho protein with [^3H]GDP in the presence of 6-TGDP was determined by using Prism software to fit the titration curve to a hyperbola.
The RhoC and mutant RhoC bound GDP also can be competitively displaced with 6-TGDP (FIG. 16A). The binding affinities that 6-TGDP has for all of these examined Rho proteins are ˜2-fold weaker than that of GDP for Rho proteins (FIG. 16A).

RhoA [3] = biological target: T2, RhoA; conditions: known value (Morgan et al.); read-out: trueKD for GDP; cited from earlier work
RhoC [4] = biological target: T1, RhoC; assay: Titration of .NO2-treated RhoC-6-TGDP complex with [3H]GDP with/without DTT (FIG. 16D); format: binding; parameters: made in house; host or cells: E. coli; conditions: presence of DTT; .NO2-pretreated 6-TGDP-loaded RhoC; read-out: appKD for [3H]GDP
Protocol: FIG. 16. Kinetic properties of RhoC with 6-TGDP in the presence or absence of a redox agent. All kinetic analyses are described elsewhere herein. (A) ^appKD values of Rac1, RhoA, RhoC, and RhoC C20S for 6-TGDP were estimated to be 7.9, 11.6, 11.8, and 11.2 μM, respectively. ^trueKD values of Rac1, RhoA, and RhoC for 6-TGDP were then calculated to be 5.1, 10.8, 11.1, and 10.5 μM, respectively, by using a compensation equation, ^trueKD for 6-TGDP=^appKD for 6-TGDP/(1+[[^3H]GDP]/^trueKD for GDP) (Heo, J., and Hong, I. (2010) Biochemistry 49, 3965-3976), in conjunction with the values given. […] The GDP dissociation rates from RhoC C20S by NO, .NO2, and N2O3 were estimated to be 0.02×10^−3, 0.05×10^−3, and 0.04×10^−3 s^−1, respectively. […] (D) ^appKD values of RhoC for [^3H]GDP in the presence or absence of DTT were estimated to be 22.4 μM and […], respectively. ^appKD values of C20S RhoC for [^3H]GDP in the presence or absence of DTT were determined to be 24.8 μM and 25.2 μM, respectively. The regression values associated with these fits were >0.8595. […]
(d) The effect of .NO2 on the dissociation of 6-TGDP from RhoC was determined by treating the RhoC-6-TGDP complex titration with various concentrations of [^3H]GDP in the presence and absence of a reducing agent of either dithiothreitol (DTT) or β-mercaptoethanol. […]

- level of total RhoC expression (RhoC [1]; SUM149 and HME-RhoC cells, 6-TG three or more days): not changed
- activity of RhoC (RhoC [1]; SW480 and HCCLM3 cells, 6-TG and a NO donor, not shown): drastically diminished
SMILES: Nc1nc2nc[nH]c2c(=S)[nH]1 [6-TG, 6-thioguanine]
- RhoC activity (RhoC [1]; SUM149 and HME-RhoC cells, both 6-TG and DETA/NO (or GSNO), three days): essentially no RhoC activity was detected

- Kd (RhoA [2]; [3H]GDP-loaded Rho protein 1 μM titrated with 6-TGDP, read-out: appKD for 6-TGDP): 11.6 µM
- Kd (RhoA [2]; calculated by compensation equation, read-out: trueKD for 6-TGDP): 10.8 µM
- binding affinity of 6-TGDP weaker than that of GDP (Rho proteins): ~2 fold
SMILES: Nc1nc2c(ncn2[C@@H]2O[C@H](COP(=O)(O)OP(=O)(O)O)[C@@H](O)[C@H]2O)c(=S)[nH]1 [6-TGDP, 6-thioguanosine diphosphate]

SMILES: Nc1nc2c(ncn2[C@@H]2O[C@H](COP(=O)(O)OP(=O)(O)O)[C@@H](O)[C@H]2O)c(=O)[nH]1 [GDP]
- Kd (RhoA [3]): 13 µM
- Kd (RhoC [4]): 22.4 µM
